In data set [1] the test system is Staphylococcus aureus. Nature of the data set: Antibacterial activity against Staphylococcus aureus Russel. It counts as functional.
Data set [2] has as its system Influenza A virus. Nature of the data set: Antiviral activity against influenza A virus NWS/H0N1 infected in BHK cells by agar diffusion assay. It counts as functional. For orientation: Agar diffusion results depend on both activity and mobility in agar.
Data set [3] has as its system Influenza A virus. Nature of the data set: Antiviral activity against influenza A virus NWS/H0N1 infected in BHK cells at 1 mg/ml by agar diffusion assay. Particulars: read-out: IZ. It counts as functional.
The test system of data set [4] is Staphylococcus aureus. Nature of the data set: Antibacterial activity against Staphylococcus aureus 1517. It counts as functional.
Data set [5] has as its system Coxsackievirus B1. Kind of data set: Antiviral activity against Coxsackievirus B1 infected in human HeLa cells at 1 mg/ml by agar diffusion assay. The class given is functional. Particulars: Enterovirus B; read-out: IZ.
Data set [6] deals with Bacillus subtilis. Nature of the data set: Antibacterial activity against Bacillus subtilis. It counts as functional.
The test system of data set [7] is Enterococcus faecalis. Nature of the data set: Antibacterial activity against Streptococcus faecalis I. The class given is functional.
Data set [8] relates to Streptococcus pyogenes. Kind of data set: Antibacterial activity against Streptococcus pyogenes CN10. The class given is functional.
Data set [9] deals with Staphylococcus aureus. Kind of data set: Antibacterial activity against Staphylococcus aureus Oxford. It counts as functional.
Data set [10] is described as follows: Cytotoxicity against BHK cells. Particulars: hamster. It counts as cell-based, Mesocricetus auratus.
Data set [11] has as its system Coxsackievirus B1. Kind of data set: Antiviral activity against Coxsackievirus B1 infected in human HeLa cells by agar diffusion assay. The class given is functional.
For a further data set, the system named is Human alphaherpesvirus 1. Kind of data set: Antiviral activity against Herpes simplex virus 1 infected in chick embryo fibroblasts by plaque reduction assay. It counts as functional, organism-based. (Plaque reduction counts the foci of infection that form in a cell layer.)
The nature of data set [12]: Cytotoxicity against human HeLa cells by neutral red assay. It counts as cell-based.
Data set [13] deals with Streptococcus pyogenes. Nature of the data set: Antibacterial activity against Streptococcus pyogenes CN10 up to 200 ug/ml. It counts as functional, organism-based.
The subject of data set [14] is Coxsackievirus B1. Nature of the data set: Antiviral activity against Coxsackievirus B1 infected in human HeLa cells up to 100 ug/ml by agar diffusion assay. It counts as functional, organism-based.
A short description of data set [15]: Cytotoxicity against BHK cells up to 100 ug/ml by carbol fuschin assay. The class given is cell-based, Mesocricetus auratus. Particulars: hamster.
Data set [16] concerns Influenza A virus. Nature of the data set: Antiviral activity against influenza A virus NWS/H0N1 infected in BHK cells up to 100 ug/ml by agar diffusion assay. The class given is functional, organism-based.
In data set [17] the test system is Enterococcus faecalis. Kind of data set: Antibacterial activity against Streptococcus faecalis I up to 200 ug/ml. The class given is functional, organism-based.
For data set [18], the system named is Bacillus subtilis. Nature of the data set: Antibacterial activity against Bacillus subtilis up to 200 ug/ml. It counts as functional, organism-based.
Another data set deals with HeLa. Nature of the data set: Cytotoxicity against human HeLa cells up to 100 ug/ml. The class given is cell-based.
Data set [19] deals with Staphylococcus aureus. Kind of data set: Antibacterial activity against Staphylococcus aureus Oxford up to 200 ug/ml. The class given is functional, organism-based.
For data set [20], the system named is Staphylococcus aureus. Nature of the data set: Antibacterial activity against Staphylococcus aureus Russel up to 200 ug/ml. The class given is functional, organism-based.
The test system of data set [21] is Staphylococcus aureus. Nature of the data set: Antibacterial activity against Staphylococcus aureus 1517 up to 200 ug/ml. It counts as functional, organism-based.

As usually defined, the MIC is the smallest concentration in the dilution series that meets the test's criterion for growth inhibition. A high value points to a need for much substance.

Values after ≈ are worked out from the molar mass of the structure shown. Active and inactive are the calls of the source.

Take `CNC1=NC(=O)[C@H]([C@H](C)c2c[nH]c3ccccc23)O1` (racemic) [INDOMYCIN]: the MIC against Staphylococcus aureus [1] turned out to be 2 mg/L (≈ 7.77 µM); in the data set with Staphylococcus aureus [4] it was 2 mg/L (≈ 7.77 µM); against Bacillus subtilis [6], 20 mg/L (≈ 77.7 µM); with Enterococcus faecalis [7], 2 mg/L (≈ 7.77 µM); against Streptococcus pyogenes [8] it was 200 mg/L (≈ 777 µM); against Staphylococcus aureus [9], 2 mg/L (≈ 7.77 µM). Moreover, the PDD50 in the data set on Influenza A virus [2] is over 100 µg/mL. Further, the zone of inhibition at 1000 µg/mL in the data set with Influenza A virus [3] and in the data set on Coxsackievirus B1 [5] was 0 mm throughout. Also, the MCC in data set [10] was over 100 µg/mL.
In the case of `CCNC1=NC(=O)[C@H]([C@H](C)c2c[nH]c3ccccc23)S1` (racemic), the PDD50 in the data set on Coxsackievirus B1 [11] stood at 10 µg/mL; in the data set on Influenza A virus [2] it was 5 µg/mL. Also, in the data set with Human alphaherpesvirus 1, the result was inactive. The MIC against Staphylococcus aureus [1] worked out at 20 mg/L (≈ 69.6 µM); against Staphylococcus aureus [4], 20 mg/L (≈ 69.6 µM); in the data set with Bacillus subtilis [6], 200 mg/L (≈ 696 µM); in the data set with Enterococcus faecalis [7] it was 20 mg/L (≈ 69.6 µM); in the data set on Streptococcus pyogenes [8], 200 mg/L (≈ 696 µM); against Staphylococcus aureus [9], 20 mg/L (≈ 69.6 µM). In addition, the values for the MCC in [12] and in data set [10] were over 100 µg/mL and 10 µg/mL, respectively. Further, the zone of inhibition at 1000 µg/mL was 34 mm with Influenza A virus [3] and 16 mm in the data set on Coxsackievirus B1 [5].
In the case of `C[C@H](c1c[nH]c2ccccc12)[C@@H]1SC(NCCO)=NC1=O` (racemic), the figures for the PDD50 in the data set with Coxsackievirus B1 [11] and in the data set on Influenza A virus [2] were 16 µg/mL and over 30 µg/mL, respectively. Besides, the result in the data set with Human alphaherpesvirus 1 was inactive. Moreover, the MIC was 200 mg/L (≈ 659 µM) against Staphylococcus aureus [1]; 200 mg/L (≈ 659 µM) against Staphylococcus aureus [4]; over 200 mg/L with Bacillus subtilis [6]; 200 mg/L (≈ 659 µM) in the data set with Enterococcus faecalis [7]; 200 mg/L (≈ 659 µM) against Streptococcus pyogenes [8]; 200 mg/L (≈ 659 µM) against Staphylococcus aureus [9]. In addition, the MCC is over 100 µg/mL in data set [12] and 100 µg/mL in data set [10]. Also, the zone of inhibition at 1000 µg/mL in the data set with Influenza A virus [3] is 8 mm; with Coxsackievirus B1 [5] it was 20 mm.
In the case of `CNC1=NC(=O)[C@H]([C@H](C)c2c[nH]c3ccccc23)S1` (racemic), the results for the PDD50 in the data set on Coxsackievirus B1 [11] and with Influenza A virus [2] were 5 µg/mL and 3 µg/mL, respectively. The MIC in the data set on Staphylococcus aureus [1] turned out to be 2 mg/L (≈ 7.32 µM); with Staphylococcus aureus [4] it was 2 mg/L (≈ 7.32 µM); in the data set with Bacillus subtilis [6] it was 20 mg/L (≈ 73.2 µM); with Enterococcus faecalis [7], 2 mg/L (≈ 7.32 µM); against Streptococcus pyogenes [8], 200 mg/L (≈ 732 µM); in the data set on Staphylococcus aureus [9], 2 mg/L (≈ 7.32 µM). Moreover, the MCC was determined as 30 µg/mL in [12] and 10 µg/mL in [10]. In addition, the zone of inhibition at 1000 µg/mL in the data set with Influenza A virus [3] was found to be 36 mm; with Coxsackievirus B1 [5] it was 29 mm.
With `NC(=O)c1ncn([C@@H]2O[C@H](CO)[C@@H](O)[C@H]2O)n1` [RIBAVIRIN], the PDD50 in the data set with Coxsackievirus B1 [11] was over 100 µg/mL; in the data set on Influenza A virus [2] it was 1 µg/mL. Also, the MCC in [12] and in data set [10] was over 100 µg/mL in each case. Moreover, the zone of inhibition at 1000 µg/mL in the data set on Influenza A virus [3] was 28 mm; with Coxsackievirus B1 [5], 0 mm.
On to `C/N=C1/S[C@@H]([C@H](C)c2c[nH]c3ccccc23)C(=O)N1C` (racemic), for which the PDD50 with Coxsackievirus B1 [11] stood at 3 µg/mL; in the data set on Influenza A virus [2], 1.2 µg/mL. Further, the result in the data set on Streptococcus pyogenes [13], with Coxsackievirus B1 [14], in the data set with Human alphaherpesvirus 1, with Influenza A virus [16], in the data set with Enterococcus faecalis [17] and in the data set with Bacillus subtilis [18] was inactive. Also, the result in the data set with Staphylococcus aureus [19], in the data set with Staphylococcus aureus [20] and in the data set on Staphylococcus aureus [21] was inactive. The Activity entry (in data set [15]; in the data set on HeLa) was “Non-toxic” each time. In addition, the MIC was determined as 2 mg/L (≈ 6.96 µM) against Staphylococcus aureus [1]; 2 mg/L (≈ 6.96 µM) against Staphylococcus aureus [4]; 20 mg/L (≈ 69.6 µM) against Bacillus subtilis [6]; 2 mg/L (≈ 6.96 µM) in the data set on Enterococcus faecalis [7]; 200 mg/L (≈ 696 µM) with Streptococcus pyogenes [8]; 2 mg/L (≈ 6.96 µM) in the data set with Staphylococcus aureus [9]. Further, the MCC in data set [12] is 12 µg/mL; in data set [10], 4 µg/mL.
For the compound `OC(c1ccccc1)c1nc2ccccc2[nH]1` (centres undefined), the PDD50 in the data set with Coxsackievirus B1 [11] was 20 µg/mL; in the data set on Influenza A virus [2], over 100 µg/mL. Further, the figures for the MCC in data set [12] and in [10] were 100 µg/mL and over 100 µg/mL, respectively. Also, the zone of inhibition at 1000 µg/mL came out at 0 mm in the data set with Influenza A virus [3] and 24 mm with Coxsackievirus B1 [5].
For the compound `CNC1=NC(=O)[C@@H]([C@H](C)c2c[nH]c3ccccc23)O1` (racemic), the MIC in the data set on Staphylococcus aureus [1] is 200 mg/L (≈ 777 µM); in the data set with Staphylococcus aureus [4], 200 mg/L (≈ 777 µM); against Bacillus subtilis [6] it was over 200 mg/L; against Enterococcus faecalis [7], 200 mg/L (≈ 777 µM); against Streptococcus pyogenes [8], over 200 mg/L; in the data set with Staphylococcus aureus [9] it was 200 mg/L (≈ 777 µM). Besides, the PDD50 in the data set on Influenza A virus [2] was over 100 µg/mL. The zone of inhibition at 1000 µg/mL with Influenza A virus [3] and in the data set on Coxsackievirus B1 [5] was 0 mm in each case. Also, the MCC in [10] was over 100 µg/mL.
Take `CNC1=NC(=O)C(Cc2c[nH]c3ccccc23)S1` (racemic): the PDD50 in the data set on Coxsackievirus B1 [11] amounted to 100 µg/mL; with Influenza A virus [2] it was 10 µg/mL. Moreover, the outcome in the data set with Human alphaherpesvirus 1 was inactive. The MIC is 20 mg/L (≈ 77.1 µM) against Staphylococcus aureus [1]; 20 mg/L (≈ 77.1 µM) against Staphylococcus aureus [4]; over 200 mg/L against Bacillus subtilis [6]; 20 mg/L (≈ 77.1 µM) in the data set on Enterococcus faecalis [7]; 200 mg/L (≈ 771 µM) against Streptococcus pyogenes [8]; 20 mg/L (≈ 77.1 µM) against Staphylococcus aureus [9]. The MCC was over 100 µg/mL in data set [12] and 30 µg/mL in [10]. The zone of inhibition at 1000 µg/mL with Influenza A virus [3] amounted to 14 mm; in the data set with Coxsackievirus B1 [5] it was 9 mm.

Values taken from ChEMBL document CHEMBL3244280, “Thiazolinone analogues of indolmycin with antiviral and antibacterial activity” (J Med Chem, 1978).
